Experimental data from patent US12391687B2, “Five-and-six-membered heterocyclic compound and use thereof as protein receptor kinase inhibitor” (SHANGHAI ENNOVABIO PHARMACEUTICALS CO., LTD., priority 2018, dated 2025).

How the values were obtained:
Type in all cases: biochemical
Recombinant human TRKA = Recombinant human TRKA (Homo sapiens (Human), UniProt P04629); assay: In vitro activity test on TRKA kinase (HTRF kinEASE TK); conditions: 14.68 μM ATP, 40 min, room temperature
Description: (§1) Recombinant human TRKA, TRKB, TRKC proteins were purchased from Carna Biosciences. HTRF kinEASE TK kit was purchased from Cisbio Bioassays. Synergy Neo 2 of Biotek was used to read the plate.
(§2) The tested compounds were subjected to 3-fold serial dilution to reach a final concentration of 1 μM to 0.05 nM (10 concentrations), duplicates for each concentration; and the DMSO concentration in the detection reaction was 1%.
0.2 ng/μL TRKA protein kinase, 1 μM TK Substrate-biotin polypeptide substrate, 14.68 μM ATP, 1×enzymatic buffer, 5 mM MgCl2, and 1 mM DTT. The assay plate was White Proxiplate384-Plus plate (PerkinElmer), and the reaction was incubated at room temperature for 40 min, and the assay volume was 10 μL.
(§3) 10 μL of detection reagent (containing 0.125 μM SA-XL665 and 5 μL 1×TK-Antibody) was added to the plate and incubated overnight at room temperature. Synergy Neo 2 was used to read the plate.
(§4) The 665/620 Ratio was converted according to the following formula into inhibition rate (%)=(1−Ratiotest/Ratiomax)×100%. Ratiomax was the value of positive controls without tested compound, and Ratiotest was the value of each concentration of different compounds. IC50 (nM) data was obtained by 4 parameter curve fitting (see Table 1).

Recombinant human TRKB = Recombinant human TRKB (Homo sapiens (Human), UniProt Q16620); assay: In vitro activity test on TRKB kinase (HTRF kinEASE TK); conditions: 4.77 μM ATP, 50 min, room temperature
Description: as §1, §2
(§5) 0.037 ng/μL TRKB protein kinase, 1 μM TK Substrate-biotin polypeptide substrate, 4.77 μM ATP, 1× enzymatic buffer, 5 mM MgCl2, 1 mM MnCl2 and 1 mM DTT. The assay plate was White Proxiplate 384-Plus plate (PerkinElmer), the reaction was incubated at room temperature for 50 min, and the assay volume was 10 μL.
as §3, §4

Recombinant human TRKC = Recombinant human TRKC (Homo sapiens (Human), UniProt Q16288); assay: In vitro activity test on TRKC kinase (HTRF kinEASE TK); conditions: 25.64 μM ATP, 40 min, room temperature
Description: as §1, §2
as §5, with “ng/μL TRKC” for “ng/μL TRKB”, “substrate, 25.64” for “substrate, 4.77”, “MgCl2,” for “MgCl2, 1 mM MnCl2”, “The detection” for “The assay”, “for 40” for “for 50”
as §3, §4

Recombinant human TRKA, sequence (P04629 33-796): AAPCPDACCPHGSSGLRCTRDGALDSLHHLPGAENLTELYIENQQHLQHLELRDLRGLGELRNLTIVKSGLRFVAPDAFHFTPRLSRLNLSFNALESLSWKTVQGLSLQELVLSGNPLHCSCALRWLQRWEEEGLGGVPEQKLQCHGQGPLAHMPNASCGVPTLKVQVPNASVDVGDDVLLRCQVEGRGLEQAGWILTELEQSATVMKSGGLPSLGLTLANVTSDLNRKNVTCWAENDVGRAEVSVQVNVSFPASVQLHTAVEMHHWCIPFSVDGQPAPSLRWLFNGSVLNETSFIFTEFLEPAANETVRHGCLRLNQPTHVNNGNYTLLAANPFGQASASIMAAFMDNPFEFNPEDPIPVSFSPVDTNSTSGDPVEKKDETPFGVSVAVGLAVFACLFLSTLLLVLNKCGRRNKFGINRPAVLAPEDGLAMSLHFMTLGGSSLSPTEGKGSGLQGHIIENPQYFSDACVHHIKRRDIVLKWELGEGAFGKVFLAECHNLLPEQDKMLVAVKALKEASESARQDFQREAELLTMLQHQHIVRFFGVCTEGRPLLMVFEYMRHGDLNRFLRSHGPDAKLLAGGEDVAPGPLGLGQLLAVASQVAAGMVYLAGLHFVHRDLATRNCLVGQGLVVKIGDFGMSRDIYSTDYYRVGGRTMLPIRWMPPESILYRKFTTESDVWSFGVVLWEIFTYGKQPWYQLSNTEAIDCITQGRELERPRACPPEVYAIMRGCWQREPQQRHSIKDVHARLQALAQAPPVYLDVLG
Recombinant human TRKB, sequence (Q16620 32-822): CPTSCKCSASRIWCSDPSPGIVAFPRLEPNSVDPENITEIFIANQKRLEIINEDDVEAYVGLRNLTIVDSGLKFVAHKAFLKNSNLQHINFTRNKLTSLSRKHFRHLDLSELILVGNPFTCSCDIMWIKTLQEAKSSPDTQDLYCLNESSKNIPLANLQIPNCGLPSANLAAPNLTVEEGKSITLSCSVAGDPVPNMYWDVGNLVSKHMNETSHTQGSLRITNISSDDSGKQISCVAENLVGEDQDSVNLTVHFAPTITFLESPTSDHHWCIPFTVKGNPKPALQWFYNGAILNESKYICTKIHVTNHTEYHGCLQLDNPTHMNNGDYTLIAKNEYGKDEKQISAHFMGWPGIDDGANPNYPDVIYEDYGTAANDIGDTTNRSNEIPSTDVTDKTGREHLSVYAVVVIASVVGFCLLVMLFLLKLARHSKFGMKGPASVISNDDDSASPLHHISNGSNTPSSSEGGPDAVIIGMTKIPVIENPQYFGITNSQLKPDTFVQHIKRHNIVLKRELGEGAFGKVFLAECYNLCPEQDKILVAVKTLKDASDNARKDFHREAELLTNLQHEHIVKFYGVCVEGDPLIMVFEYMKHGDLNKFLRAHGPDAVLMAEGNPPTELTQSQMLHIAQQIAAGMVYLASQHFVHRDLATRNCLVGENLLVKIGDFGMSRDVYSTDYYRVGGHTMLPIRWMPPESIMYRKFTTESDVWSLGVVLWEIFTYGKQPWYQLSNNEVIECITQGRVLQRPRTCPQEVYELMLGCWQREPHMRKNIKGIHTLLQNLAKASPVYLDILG
Recombinant human TRKC, sequence (Q16288 32-839): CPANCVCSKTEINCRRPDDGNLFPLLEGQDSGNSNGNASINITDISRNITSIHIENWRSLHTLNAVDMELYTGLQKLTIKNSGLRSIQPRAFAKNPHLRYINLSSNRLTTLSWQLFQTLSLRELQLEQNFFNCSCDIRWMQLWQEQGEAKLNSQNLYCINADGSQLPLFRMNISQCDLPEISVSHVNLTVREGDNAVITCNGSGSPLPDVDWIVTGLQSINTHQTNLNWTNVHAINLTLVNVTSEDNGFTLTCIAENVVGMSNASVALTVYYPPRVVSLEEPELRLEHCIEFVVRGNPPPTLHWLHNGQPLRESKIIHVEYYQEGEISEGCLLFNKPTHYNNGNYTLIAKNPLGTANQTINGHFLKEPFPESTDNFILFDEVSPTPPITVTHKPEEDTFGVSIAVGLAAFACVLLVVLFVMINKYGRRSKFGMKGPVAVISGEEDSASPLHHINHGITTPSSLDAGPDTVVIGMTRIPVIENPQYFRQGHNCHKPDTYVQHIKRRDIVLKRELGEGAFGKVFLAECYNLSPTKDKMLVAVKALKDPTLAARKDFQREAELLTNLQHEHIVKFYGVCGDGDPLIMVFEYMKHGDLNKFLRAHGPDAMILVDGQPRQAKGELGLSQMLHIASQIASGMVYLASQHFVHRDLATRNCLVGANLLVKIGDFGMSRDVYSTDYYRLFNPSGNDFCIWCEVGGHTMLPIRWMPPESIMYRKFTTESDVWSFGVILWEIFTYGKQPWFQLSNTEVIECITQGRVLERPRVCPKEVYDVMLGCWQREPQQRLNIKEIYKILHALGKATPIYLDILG

| IC50 (Recombinant human TRKA) [nM] | IC50 (Recombinant human TRKB) [nM] | IC50 (Recombinant human TRKC) [nM] | SMILES |
| --- | --- | --- | --- |
| < 10 | < 50 | < 10 | O=C(NCCCCO)c1cnc2[nH]nc(N3CCC[C@@H]3c3cc(F)ccc3F)c2c1 [Example 12, (R)-3-(2-(2,5-difluorophenyl)pyrrolidin-1-yl)-N-(4-hydroxybutyl)-1H-pyrazolo[3,4-b]pyridine-5-carboxamide] |
| < 500 | < 500 | < 500 | CN(C)C(=O)c1cnc2[nH]nc(N3C[C@@H](F)C[C@@H]3c3cc(F)ccc3F)c2c1 [Example 18, 3-((2R,4S)-2-(2,5-difluorophenyl)-4-fluoropyrrolidin-1-yl)-N,N-dimethyl-1H-pyrazolo[3,4-b]pyridine-5-carboxamide] |
| < 1 | < 1 | < 1 | NNC(=O)c1cnc2[nH]nc(N3C[C@@H](F)C[C@@H]3c3cc(F)ccc3F)c2c1 [Example 39, 3-((2R,4S)-2-(2,5-difluorophenyl)-4-fluoropyrrolidin-1-yl)-1H-pyrazolo[3,4-b]pyridine-5-carbohydrazide] |
| < 10 | < 10 | < 10 | NC(=O)c1cnc2[nH]nc(N3CCC[C@@H]3c3cc(F)ccc3F)c2c1 [Example 4, (R)-3-(2-(2,5-difluorophenyl)pyrrolidin-1-yl)-1H-pyrazolo[3,4-b]pyridine-5-carboxamide] |
| < 50 | < 10 | < 10 | CC(C)(O)CNC(=O)c1cnc2[nH]nc(N3CCC[C@@H]3c3cc(F)ccc3F)c2c1 [Example 10, (R)-3-(2-(2,5-difluorophenyl)pyrrolidin-1-yl)-N-(2-hydroxy-2-methylpropyl)-1H-pyrazolo[3,4-b]pyridine-5-carboxamide] |
| < 500 | < 500 | < 500 | CNC(=O)CC1(O)CCN(C(=O)Nc2cnc3[nH]nc(N4CCC[C@@H]4c4cc(F)ccc4F)c3c2)C1 (stereo partly drawn) [Example 1, N-(3-((R)-2-(2,5-difluorophenyl)pyrrolidin-1-yl)-1H-pyrazolo[3,4-b]pyridin-5-yl)-3-hydroxy-3-(2-(methylamino)-2-oxoethyl)pyrrolidine-1-carboxamide] |
| < 10 | < 10 | < 10 | O=C1CC(n2cc(-c3cnc4[nH]nc(N5C[C@@H](F)C[C@@H]5c5cc(F)ccc5F)c4c3)cn2)CCN1 (stereo partly drawn) [Example 23, 4-(4-(3-((2R,4S)-2-(2,5-difluorophenyl)-4-fluoropyrrolidin-1-yl)-1H-pyrazolo[3,4-b]pyridin-5-yl)-1H-pyrazol-1-yl)piperidin-2-one] |
| < 500 | < 500 | < 500 | O=C(Nc1cnc2[nH]nc(N3CCC[C@@H]3c3cc(F)ccc3F)c2c1)N1CC[C@H](O)C1 [Example 2, (S)—N-(3-((R)-2-(2,5-difluorophenyl)pyrrolidin-1-yl)-1H-pyrazolo[3,4-b]pyridin-5-yl)-3-hydroxypyrrolidine-1-carboxamide] |
| < 50 | < 50 | < 50 | O=C(NCCO)c1cnc2[nH]nc(N3CCC[C@@H]3c3cc(F)ccc3F)c2c1 [Example 6, (R)-3-(2-(2,5-difluorophenyl)pyrrolidin-1-yl)-N-(2-hydroxyethyl)-1H-pyrazolo[3,4-b]pyridine-5-carboxamide] |
| < 50 | < 10 | < 50 | O=C(NCCCO)c1cnc2[nH]nc(N3CCC[C@@H]3c3cc(F)ccc3F)c2c1 [Example 9, (R)-3-(2-(2,5-difluorophenyl)pyrrolidin-1-yl)-N-(3-hydroxypropyl)-1H-pyrazolo[3,4-b]pyridine-5-carboxamide] |
| < 50 | < 10 | < 10 | COCCNC(=O)c1cnc2[nH]nc(N3CCC[C@@H]3c3cc(F)ccc3F)c2c1 [Example 8, (R)-3-(2-(2,5-difluorophenyl)pyrrolidin-1-yl)-N-(2-methoxyethyl)-1H-pyrazolo[3,4-b]pyridine-5-carboxamide] |
